A short description of series [1]: Selectivity index, ratio of CC50 for human MT4 cells to EC50 for wild type HIV-1 IIIB infected in human MT4 cells. Particulars: read-out: Selectivity Index. Format: toxicity, cell-based.
Series [2] is described as follows: Selectivity index, ratio of CC50 for human MT4 cells to EC50 for HIV-2 ROD infected in human MT-4 cells. Format: toxicity, cell-based. Particulars: read-out: Selectivity Index.
The nature of series [3]: Selectivity ratio of EC50 for wild type HIV-1 IIIB infected in human MT4 cells to EC50 for HIV-2 ROD infected in human MT-4 cells assessed as protection against virus-induced cytopathic effect incubated for 5 days by spectrophotometric based MTT assay. Conditions: time 5 day. Format: functional. A general note: Damage to the host cells serves as the signal in cytopathic effect assays.

In series [4] the test system is Human immunodeficiency virus 1. In words: Anti-HIV activity against wild type HIV-1 IIIB infected in human MT4 cells assessed as protection against virus-induced cytopathic effect incubated for 5 days by spectrophotometric based MTT assay. Format: functional, organism-based. Particulars: Human immunodeficiency virus 1, IIIB, MT4, 120 h.
A further series deals with MT4. In words: Cytotoxicity against human MT4 cells assessed as reduction in cell viability incubated for 5 days by spectrophotometric based MTT assay. Particulars: MT4, 120 h, time 5 day. Format: functional.
In series [5] the test system is Human immunodeficiency virus 2. The series is described as follows: Anti-HIV activity against HIV-2 ROD infected in human MT-4 cells assessed as protection against virus-induced cytopathic effect incubated for 5 days by spectrophotometric based MTT assay. Conditions: Human immunodeficiency virus 2, ROD, MT4, 120 h. Format: functional, organism-based.

Here are results for 21 compounds from ChEMBL document CHEMBL6083251, “"Pseudosubstrate Envelope"/Free Energy Perturbation-Guided Design and Mechanistic Investigations of Benzothiazole HIV Capsid Modulators with High Ligand Efficiency” (J Med Chem, 2024).

Bounds are passed on as bounds.

For the compound `COc1ccc2[nH]c(C)c(CC(=O)N[C@@H](Cc3cc(F)cc(F)c3)C(=O)N(C)c3ccc4scnc4c3)c2c1`, the selectivity ratio was determined as 900 in series [1] and 81 in series [2]. Further, the “Ratio EC50” value in series [3] amounted to 0.09. Moreover, the concentration for a half-maximal effect (EC50) (commonly the midpoint of the concentration-response curve) turned out to be 32.8 nM in series [4] and 365 nM in series [5]. Moreover, the cytotoxic concentration (CC50) (commonly the concentration that lowers cell viability or growth by half) in the series with MT4 worked out at 29.5 µM.
On to `CN(C(=O)[C@H](Cc1cc(F)cc(F)c1)NC(=O)Cc1c[nH]c2cc(Cl)ccc12)c1ccc2scnc2c1`, for which the selectivity ratio in series [1] was determined as 669; in series [2], 197. Also, the “Ratio EC50” value in series [3] worked out at 0.29. The concentration giving a half-maximal response (EC50) turned out to be 37.1 nM in series [4] and 126 nM in series [5]. Also, the CC50 in the series on MT4 is 24.8 µM.
Regarding `CN(C(=O)[C@H](Cc1cc(F)cc(F)c1)NC(=O)Cc1c[nH]c2cccc(Br)c12)c1ccc2scnc2c1`, the selectivity ratio in series [1] turned out to be 133; in series [2] it was 20.5. The “Ratio EC50” value in series [3] stood at 0.15. Also, the EC50 in series [4] was determined as 166 nM; in series [5] it was 1080 nM. For the same compound, the CC50 in the series on MT4 is 22.2 µM.
As to `CN(C(=O)[C@H](Cc1cc(F)cc(F)c1)NC(=O)Cc1c[nH]c2ccc(F)cc12)c1ccc2scnc2c1`, the selectivity ratio in series [1] was determined as 2510; in series [2] it was 177. Also, the “Ratio EC50” value in series [3] was found to be 0.07. Further, the results for the EC50 in series [4] and in series [5] were 10.1 nM and 144 nM, respectively. Besides, in the series with MT4, the cytotoxic concentration (CC50) came to 25.5 µM.
Consider `COC(=O)c1c(C)ccn1CC(=O)N[C@@H](Cc1cc(F)cc(F)c1)C(=O)N(C)c1ccc2scnc2c1`, for which the selectivity ratio worked out at 124 in series [1] and 66.3 in series [2]. In series [3], the “Ratio EC50” value is recorded as 0.53. The EC50 in series [4] came to 1030 nM; in series [5], 1920 nM. Moreover, the 50% cytotoxic concentration (CC50) with MT4 came out at 127 µM.
Regarding `CN(C(=O)[C@H](Cc1cc(F)cc(F)c1)NC(=O)Cc1c[nH]c2cc(Br)ccc12)c1ccc2scnc2c1`, the selectivity ratio came out at 848 in series [1] and 339 in series [2]. For the same compound, the “Ratio EC50” value in series [3] amounted to 0.4. The EC50 in series [4] was determined as 27.4 nM; in series [5], 68.6 nM. Further, the CC50 with MT4 was found to be 23.3 µM.
Regarding `Cc1[nH]c2ccc(F)cc2c1CC(=O)N[C@@H](Cc1cc(F)cc(F)c1)C(=O)N(C)c1ccc2scnc2c1`, the selectivity ratio was 147 in series [1] and 33.4 in series [2]. Moreover, the “Ratio EC50” value in series [3] was determined as 0.23. Besides, the concentration for a half-maximal effect (EC50) in series [4] stood at 170 nM; in series [5], 745 nM. Also, the CC50 in the series with MT4 was 24.9 µM.
Turning to `COc1ccc2[nH]cc(CC(=O)N[C@@H](Cc3cc(F)cc(F)c3)C(=O)N(C)c3ccc4scnc4c3)c2c1`, the selectivity ratio stood at 3260 in series [1] and 460 in series [2]. Further, the “Ratio EC50” value in series [3] was 0.14. The concentration for a half-maximal effect (EC50) came out at 22.4 nM in series [4] and 159 nM in series [5]. For the same compound, the cytotoxic concentration (CC50) in the series with MT4 came to 73.2 µM.
`CN(C(=O)[C@H](Cc1cc(F)cc(F)c1)NC(=O)Cc1c[nH]c2cccc(F)c12)c1ccc2scnc2c1`: the values for the selectivity ratio in series [1] and in series [2] were 439 and 47.3, respectively. Further, the “Ratio EC50” value in series [3] turned out to be 0.11. The concentration for a half-maximal effect (EC50) in series [4] turned out to be 53.6 nM; in series [5] it was 498 nM. The CC50 with MT4 was determined as 23.5 µM.
As to `CN(C(=O)[C@H](Cc1cc(F)cc(F)c1)NC(=O)Cc1c[nH]c2ccccc12)c1ccc2scnc2c1`, the values for the selectivity ratio in series [1] and in series [2] were 842 and 153, respectively. The “Ratio EC50” value in series [3] was 0.18. The values for the EC50 in series [4] and in series [5] were 39.6 nM and 218 nM, respectively. The 50% cytotoxic concentration (CC50) in the series on MT4 was found to be 33.4 µM.
As for `Cc1[nH]c2ccccc2c1CC(=O)N[C@@H](Cc1cc(F)cc(F)c1)C(=O)N(C)c1ccc2scnc2c1`, the selectivity ratio stood at 108 in series [1] and 32.8 in series [2]. Besides, the “Ratio EC50” value in series [3] worked out at 0.3. The figures for the 50% effective concentration (EC50) in series [4] and in series [5] were 270 nM and 887 nM, respectively. In the series on MT4, the CC50 turned out to be 29.1 µM.
For the compound `Cc1ccc2[nH]cc(CC(=O)N[C@@H](Cc3cc(F)cc(F)c3)C(=O)N(C)c3ccc4scnc4c3)c2c1`, the selectivity ratio in series [1] amounted to 621; in series [2], 137. Further, the “Ratio EC50” value in series [3] is 0.22. Also, the EC50 was found to be 42.4 nM in series [4] and 193 nM in series [5]. In the series with MT4, the cytotoxic concentration (CC50) worked out at 26.4 µM.
Turning to `Cc1cc(C(F)(F)F)nn1CC(=O)N[C@@H](Cc1cc(F)cc(F)c1)C(=O)N(C)c1ccc2scnc2c1`, the selectivity ratio was 543 in series [1] and 133 in series [2]. Also, the “Ratio EC50” value in series [3] amounted to 0.24. The 50% effective concentration (EC50) in series [4] came out at 223 nM; in series [5] it was 912 nM. Besides, in the series with MT4, the cytotoxic concentration (CC50) was determined as 121 µM.
For the compound `CN(C(=O)[C@H](Cc1cc(F)cc(F)c1)NC(=O)Cc1c[nH]c2ccc(Cl)cc12)c1ccc2scnc2c1`, the results for the selectivity ratio in series [1] and in series [2] were 1450 and 150, respectively. In series [3], the “Ratio EC50” value stood at 0.1. Besides, the EC50 in series [4] came out at 16.3 nM; in series [5], 158 nM. Also, the CC50 with MT4 is 23.7 µM.
As for `CN(C(=O)[C@H](Cc1cc(F)cc(F)c1)NC(=O)Cc1c[nH]c2cccc(Cl)c12)c1ccc2scnc2c1`, the values for the selectivity ratio in series [1] and in series [2] were 132 and 12.7, respectively. In addition, in series [3], the “Ratio EC50” value turned out to be 0.1. For the same compound, the EC50 turned out to be 186 nM in series [4] and 1930 nM in series [5]. For the same compound, the 50% cytotoxic concentration (CC50) with MT4 is 24.4 µM.
`CN(C(=O)[C@H](Cc1cc(F)cc(F)c1)NC(=O)Cc1c[nH]c2cc(F)ccc12)c1ccc2scnc2c1`: the selectivity ratio in series [1] was found to be 1500; in series [2], 153. Moreover, the “Ratio EC50” value in series [3] was 0.1. In addition, the half-maximal effective concentration (EC50) turned out to be 16.8 nM in series [4] and 165 nM in series [5]. Moreover, in the series on MT4, the CC50 is 25.2 µM.
As to `CN(C(=O)[C@H](Cc1cc(F)cc(F)c1)NC(=O)C(=O)c1c[nH]c2ccccc12)c1ccc2scnc2c1`, the selectivity ratio in series [1] and in series [2] was below 0.01 in each case. The 50% effective concentration (EC50) in series [4] and in series [5] was above 23600 nM throughout. Besides, in the series on MT4, the cytotoxic concentration (CC50) is 23.6 µM.
As for `COc1ccc2c(CC(=O)N[C@@H](Cc3cc(F)cc(F)c3)C(=O)N(C)c3ccc4scnc4c3)c[nH]c2c1`, the selectivity ratio came out at 300 in series [1] and 170 in series [2]. In addition, the “Ratio EC50” value in series [3] is listed as 0.57. The EC50 is 127 nM in series [4] and 224 nM in series [5]. In the series with MT4, the CC50 came out at 38.2 µM.
`Cc1[nH]c2ccc(Cl)cc2c1CC(=O)N[C@@H](Cc1cc(F)cc(F)c1)C(=O)N(C)c1ccc2scnc2c1`: the selectivity ratio in series [1] worked out at 133; in series [2], 41.7. Also, the “Ratio EC50” value in series [3] is on record as 0.31. Further, the EC50 was 199 nM in series [4] and 633 nM in series [5]. The cytotoxic concentration (CC50) in the series with MT4 stood at 26.4 µM.
As to `Cc1cc(C)n(CC(=O)N[C@@H](Cc2cc(F)cc(F)c2)C(=O)N(C)c2ccc3scnc3c2)n1`, the selectivity ratio in series [1] was above 962; in series [2], above 84.5. Further, in series [3], the “Ratio EC50” value is listed as 0.09. For the same compound, the EC50 in series [4] is 269 nM; in series [5] it was 3060 nM. The CC50 with MT4 was above 259 µM.
As to `CN(C(=O)[C@H](Cc1cc(F)cc(F)c1)NC(=O)Cc1c[nH]c2ccc(Br)cc12)c1ccc2scnc2c1`, the figures for the selectivity ratio in series [1] and in series [2] were 718 and 137, respectively. Moreover, in series [3], the “Ratio EC50” value turned out to be 0.19. Moreover, the figures for the EC50 in series [4] and in series [5] were 32.6 nM and 171 nM, respectively. Besides, in the series on MT4, the CC50 is 23.4 µM.
